Measurements taken from ChEMBL document CHEMBL1152040, “The stereochemical requirements of the novel -opioid selective dipeptide antagonist TMT-Tic” (Bioorg Med Chem Lett, 1997).

Assays:
[1] = target: Delta-type opioid receptor (Mus musculus, UniProt P32300); assay: The compound was evaluated for the binding affinity towards delta-opioid receptor by displacement of [3H]p-CI-DPDPE radioligand from mouse vas deferens; type: tissue-based
Mu-type opioid receptor = Mu-type opioid receptor (Cavia porcellus, UniProt P97266); assay: The compound was evaluated for the binding affinity towards mu-opioid receptor by displacement of [3H]DAMGO radioligand from guinea pig ileum; type: tissue-based
Mu-type opioid receptor, sequence (P97266 whole entry): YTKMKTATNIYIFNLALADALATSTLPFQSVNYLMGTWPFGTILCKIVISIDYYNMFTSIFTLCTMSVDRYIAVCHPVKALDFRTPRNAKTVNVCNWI

Delta-type opioid receptor, sequence (P32300 whole entry): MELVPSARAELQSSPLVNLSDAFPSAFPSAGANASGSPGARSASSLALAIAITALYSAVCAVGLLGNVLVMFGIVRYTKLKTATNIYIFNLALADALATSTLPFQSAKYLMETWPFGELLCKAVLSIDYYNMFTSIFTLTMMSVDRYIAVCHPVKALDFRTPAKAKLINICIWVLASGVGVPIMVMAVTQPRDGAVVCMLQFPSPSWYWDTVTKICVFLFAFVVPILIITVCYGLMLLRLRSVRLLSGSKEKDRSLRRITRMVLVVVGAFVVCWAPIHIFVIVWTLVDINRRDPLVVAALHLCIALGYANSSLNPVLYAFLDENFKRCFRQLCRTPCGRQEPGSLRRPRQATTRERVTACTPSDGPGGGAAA

Cc1cc(O)cc(C)c1C(C)C(NC(=O)OC(C)(C)C)C(=O)N1Cc2ccccc2C[C@H]1C(=O)OCc1ccccc1 (some centres not stated) was tested, and the IC50 [1] was 0.019 µM and the IC50 (Mu-type opioid receptor) was 8.4 µM.

With Cc1cc(O)cc(C)c1[C@@H](C)[C@@H](N)C(=O)N1Cc2ccccc2C[C@H]1C(=O)O the IC50 [1] was over 10 µM and the IC50 (Mu-type opioid receptor) was over 80 µM.

Work on Cc1cc(O)cc(C)c1[C@H](C)[C@@H](N)C(=O)N1Cc2ccccc2C[C@H]1C(=O)O yielded an IC50 [1] of over 10 µM and an IC50 (Mu-type opioid receptor) of over 80 µM.

In the case of Cc1cc(O)cc(C)c1[C@@H](C)[C@H](N)C(=O)N1Cc2ccccc2C[C@H]1C(=O)O, the IC50 [1] is reported as 0.0093 µM and the IC50 (Mu-type opioid receptor) is reported as 35 µM.

For Cc1cc(O)cc(C)c1[C@H](C)[C@H](N)C(=O)N1Cc2ccccc2C[C@H]1C(=O)O, the IC50 [1] was 0.124 µM and the IC50 (Mu-type opioid receptor) was over 80 µM.

NC(Cc1ccc(O)cc1)C(=O)N1Cc2ccccc2C[C@H]1C(=O)O (single isomer, unassigned) gave a Ki [1] of 0.191 µM and a Ki (Mu-type opioid receptor) of 28.4 µM.
